According to patent publication US20220177484A1, “MACROCYCLES WITH ANTIOXIDANT AND NEUROPROTECTIVE ACTIVITIES” (INSTITUTO BIOMAR, S.A, priority 2019, published 2022):

Assays:
[1] = system: SH-SY5Y human neuroblastoma cells expressing mutated huntingtin (pEGFP-Q74); experiment: Mutated huntingtin aggregation in transfected SH-SY5Y cells; assay type: cell-based; conditions: 5 μM, 24 h
Procedure: Mutated huntingtin proteins aggregation are indicated by white arrows, GFP huntingtin protein (green) and β-tubulin (red). The images were acquired using the Operetta CLS automated confocal microscope, using the 40× water immersion objective.
(§1) SH-SY5Y human neuroblastoma cells were maintained in Dulbecco's modified Eagle's medium (DMEM) supplemented with 10% fetal bovine serum (FBS), 2 mM L-glutamine and 100 U/mL penicillin-0.1 mg/mL streptomycin at 37° C. and 5% CO2.
(§2) To study the effect of compounds on mutated huntingtin and synuclein that accumulates in cells, SH-SY5Y were transfected with a constitutively active mutated-huntingtin expression vector pEGFP-Q74 (encoding EGFP protein fused to a fragment of huntingtin corresponding to the exon 1 with 74 CAG repeats; c.54GCA[74]; Addgene; #40262) and EGFP-alphasynuclein-A53T (Addgene; #40823).
(§3) For transfection assays, cells were seeded (30×10^3 cells/cm^2) on 96-multiwell plates (coated with poliornitine-fibronectine). Cells were transfected with 0.3 μg pEGFP-Q74 plasmid using LTX with Plus Reagent according to the manufacturer's instructions (Thermo Fisher). After 24-h, the medium was changed with a new one, and cells were treated with increasing amounts of GKK1032C and CL0670 (0.1 μM, 1 μM and 5 μM) or DMSO (control cells) for 24 h at 37° C. […]

[2] = system: SH-SY5Y human neuroblastoma cells expressing EGFP-alphasynuclein-A53T; experiment: Mutated α-synuclein aggregation in transfected SH-SY5Y cells; assay type: cell-based; conditions: 5 μM, 24 h
Procedure: Mutated α-synuclein protein aggregation are indicated by white arrows, GFP α-synuclein protein (green) and β-tubulin (red). The images were acquired using the Operetta CLS automated confocal microscope, using the 40× water immersion objective.
as §1, §2, §3

C57BL6/J male mice [3] = experiment: Rotarod test after Middle Cerebral Artery occlusion (stroke model); assay type: in vivo; conditions: GKK1032C and CL0670 10 mg/kg intravenously (jugular vein) after 30 min occlusion; rotarod 24 hours after reanimation; untreated stroke impairment ˜75%
Source text: Middle Cerebral Artery occlusion involves temporarily or permanently restricting MCA blood flow to the cortex and striatum. The cerebral ischemic model of stroke is commonly used to assess ischemic injury in the brain. Occlusion of the middle cerebral artery (MCA) leads to a reduction of cerebral blood flow in both the striatum and the cortex. It is a highly reproducible model that results in brain damages similar to those occurring in human stroke.
Compounds GKK1032C and CL0670 were administered intravenously at a dose of 10 mg/kg. 11-week old C57BL6/J male mice were divided into 3 groups of 7 mice each: mice submitted to Middle Cerebral Artery occlusion (ischemia), mice submitted to Middle Cerebral Artery occlusion and administration of GKK1032C and CL0670.
All mice were firstly trained in the rotarod for 3 consecutive days. After this period, the mice were put to sleep with sevoflurane and submitted to surgery. Occlusion was performed by maintain the surgical filament occluding the middle cerebral artery for 30 minutes. Once removed, GKK1032C and CL0670 were injected at the jugular vein. 24 hours after reanimation, the animals were submitted to the rotarod test.

[4] = system: rat cortical primary neurons; experiment: Protein concentration in neurons incubated with L-BSO and rotenone (neuronal death); assay type: cell-based; conditions: L-BSO and rotenone 3 or 6 h with compound at 0.1, 1 or 5 μg/ml; effect as from 0.1 μg/ml (6 h) (FIG. 4)
[5] = system: rat cortical primary neurons; experiment: H2O2 formation in cortical primary neurons treated with L-BSO and rotenone (Amplex Red); assay type: cell-based
Procedure: The data are presented as the mean values±[…] of the mean (SEM) from n=6 (i.e., 6 independent wells measured independently).
After this period, cells were again washed and determined the rate of H2O2 production during the next 2 h.

[6] = Pharmacokinetics in plasma and brain after intraperitoneal administration; assay type: in vivo, female C57BL/6 mice; conditions: 150 mg/Kg intraperitoneal
Procedure: FIG. 10 represents the concentration of Compound I in plasma and brain of female C57BL/6 mice collected at t=0 min, 5 min, 15 min, 30 min, 1 hour, 4 hours, 10 hours, 24 hours and 48 hours.
The Maximum Tolerated Dose (MTD) and Pharmacokinetics (PK) of compound I were determined after intraperitoneal administration to female C57BL/6 (˜25 g) 9 weeks old mice. The injection comprised a 150 mg/Kg dose of compound I in Creomophor-EtOH-H2O (10:5:85). The concentrations of GKK1032C in plasma and brain were determined at different times per duplicate (pre-dose, 5 min, 15 min, 30 min, 1 h, 4 h, 10 h, 24 h and 48 h) using a previously validated analytical method. […] The highest concentration in the brain is 850 ng/mL at 4 hours after injection and progressively declined until reaching the control levels at 24 hours post-administration.

C57BL6/J male mice [7] = experiment: Novel Object Recognition test under normal conditions; assay type: in vivo; conditions: once-daily 150 mg/kg intraperitoneal for 3 days, test at day 4
Procedure: (§4) Experiments were conducted to evaluate if the intraperitoneal administration of Compound I to mice would have any effect in the animal's motor coordination, fear/anxiety and short-term memory behaviour. The motivation for this experiment is to determine if, under normal conditions, the injection of compound I would affect the behaviour of 8 weeks-old C57BL6/J male mice, in vivo. Mice were separated in group I (vehicle injection only) and group II (compound I injection). The mice were injected with a once-daily dose of 150 mg/kg for 3 days. The tests consisted in the rotarod performance test (at day 1, 2, 3 and 4), the open field test (at day 2 and 3) and the novel object recognition test (at day 4 only).

C57BL6/J male mice [8] = experiment: Rotarod test under normal conditions; assay type: in vivo; conditions: once-daily 150 mg/kg intraperitoneal for 3 days, normal mice (FIG. 11)
Procedure: FIG. 11 represents the results from the rotarod test to 8 weeks-old C57BL6/J male mice separated in two groups: Control (mice injected with vehicle) and Compound I (mice injected with a once-daily dose of 150 mg/kg of Compound I).
as §4

SMILES	mutated huntingtin and number of aggregates [1]	mutated synuclein and number of aggregates [2]	recovery of motor coordination (rotarod) of mice with stroke (C57BL6/J male mice [3]) [%]	decrease in protein concentration remaining in the wells (neuronal death) [4]	rate of H2O2 formation by the neurons ([5]; L-BSO + rotenone 6 h, washed, then compound added at 1 and 5 μg/ml, H2O2 release recorded 2 h (FIG. 1))	rate of H2O2 formation ([5]; compound 1 μg/ml together with L-BSO and rotenone for 6 h, washed, recorded 2 h (FIG. 2))	H2O2 formation in untreated neurons ([5]; pre-treatment 5 μg/ml for 72 h, no L-BSO/rotenone (FIG. 3))	L-BSO+rotenone-induced H2O2 formation ([5]; pre-treatment 5 μg/ml for 72 h, washed, then L-BSO and rotenone 6 h, recorded 2 h (FIG. 3))	highest concentration in the plasma ([6]; Creomophor-EtOH-H2O (10:5:85), mice (FIG. 10)) [ng/mL]	crossing of the blood-brain barrier ([6]; mice)	duration of high levels in the brain ([6]; mice)	highest concentration in the brain ([6]; mice) [ng/mL]	time at which brain concentration reaches the control levels post-administration ([6]; mice) [h]	time of highest concentration in the brain after injection ([6]; mice) [h]	time of highest concentration in the plasma after injection ([6]; mice) [h]	short-term memory (Novel Object Recognition) (C57BL6/J male mice [7])	motor coordination (rotarod) (C57BL6/J male mice [8])
C=CC1(C)C=C(C)C2C3C(Oc4ccc(cc4)CC4C(=O)NC(O)C4C(=O)C31)C1C(C)CC(C)CC21C (stereo not shown) [CL0670]	significantly decreased	significantly decreased	~17	–	–	–	–	–	–	–	–	–	–	–	–	–	–
C=CC1(C)C=C(C)C2C3C(Oc4ccc(cc4)CC4(O)NC(=O)C5(OC45)C(=O)C31)C1C(C)CC(C)CC21C (stereo not shown) [Compound I]	–	significantly decreased	~17	dose-dependently prevented such decrease	dose-dependently decreased	significantly impaired	prevented	very significantly prevented	30000	successfully crosses the blood-brain barrier	about 18 hours	850	24	4	4	did not alter	no effect
